Where a name gives a salt, the structure may show the parent alone.

Series [1] relates to Chinese hamster ovary cells (CHO-DHFR−). The series can be described thus: Absorption test using cells (cell growth promotion / retardation). The class given is cell-based. Conditions: 2-day culture; for Optimum cell growth concentration: Cell Counting Kit 8, absorbance 450 nm, concentration at which cell count is largest (about 5%) compared to without PQQ, tested 150 to 2.3 μg/mL; for Cell growth retarding concentration: concentration at which total cell count is decreased by about 10% compared to without PQQ. As for the experimental part:
PQQ has effects of promoting cell growth and of retarding cell growth at a higher concentration on cultured animal cells. Based on these effects, change in the cell absorption was tested.
Chinese hamster ovary cells (CHO-DHFR^−, Dainippon Sumitomo Pharma Co., Ltd.) were cultured in a medium (alpha-MEM+10% fetal bovine serum) containing 5% CO2 at 37° C. The cultured cells were added together with 100 μL of the medium to each well of the 96-well plate (IWAKI) so that the cell density per well is 6,000 cells/well, and culture was performed overnight. The culture solution was removed, and the medium having a predetermined test concentration was added thereto. After a 2-day culture, the medium was replaced, a Cell Counting Kit 8 (from DOJINDO LABORATORIES) was used to stain the cells for one hour, and measurement of absorbance was performed at 450 nm. The absorbance in this case is proportional to the cell number.
As the test samples, the crystalline calcium salts of PQQ in Examples 1 and 2 above, and the disodium salt of PQQ or the raw material in Test Example 1, were used for testing after dilution by the medium. The test was duplicated for each sample, and the results were averaged.
The concentration at which the cell count due to PQQ is largest (about 5%) compared to the case without PQQ is recorded as the optimum cell growth concentration. In addition, the concentration at which the total cell count is decreased by about 10% compared to the case without PQQ is recorded as the cell-growth retarding concentration.

Series [2] is described as follows: Water solubility of the recovered solid (description). Format: physicochemical. The conditions noted are these: dried solid.
The nature of series [3]: Elution test: amount of PQQ dissolved from the calcium salt with or without a chelating substance. The conditions noted are these: for Dissolved amount: added to water (1 mL), four hours at room temperature, centrifugation, absorption at 450 nm. The class given is physicochemical. As for the experimental part: Changes in the solubility of the insoluble salt due to the addition of a chelating substance were measured.

Series [4] is described as follows: Release of PQQ from the white calcium salt in solvents. The class given is physicochemical. The conditions noted are these: for Appearance: 40° C., five hours. As for the experimental part: After keeping each resultant mixture at 40° C. for five hours, centrifugation was performed to remove solids, and PQQ was analyzed on high performance liquid chromatography.

For the compound `O=C([O-])c1cc(C(=O)[O-])c2c(n1)C(=O)C(=O)c1cc(C(=O)O)[nH]c1-2.[Na+].[Na+]` [Comparative Example 1, disodium salt of PQQ, reference compound], in series [1], the “Optimum cell growth concentration” value turned out to be 75 µg/mL and the “Cell growth retarding concentration” value amounted to 150 µg/mL.
Consider `O=C(O)c1cc(C(=O)O)c2c(n1)C(=O)C(=O)c1cc(C(=O)O)[nH]c1-2` [Example 1, crystalline calcium salt of PQQ], for which, in series [1], the “Optimum cell growth concentration” value is 2.3 µg/mL and the “Cell growth retarding concentration” value came to 75 µg/mL. Further, the water solubility entry in series [2] is “poorly water-soluble”. Further, the Dissolved amount in series [3] is listed as 1%. Further, the “solubility of the calcium salt alone” value in series [3] (water, no chelating substance) is given as “very low”.
For “crystalline calcium salt of PQQ [Example 2]”, in series [1], the “Optimum cell growth concentration” value came out at 4.7 µg/mL and the “Cell growth retarding concentration” value is 75 µg/mL. Further, in series [3], the Dissolved amount is recorded as 3%.
Regarding white calcium salt of PQQ [Example 15], the Appearance entry in series [4] (Acetic acid 30 mM + Ammonium acetate 70 mM (pH 5)) is “White solid”; in series [4] (Dimethyl sulfoxide), “Red solution”; in series [4] (Na2HPO4 23.5 g/L NaH2PO4 5 g/L), “Red solution”; in series [4] (PBS (GIBCO, pH 7.4)), “Red solid”; in series [4] (Simulated gastric fluid (pH 1.7)) it was “Red solid”. Moreover, the “release of calcium ions” value in series [4] (neutral solution of phosphoric acid) was “easily released”; in series [4] (simulated gastric fluid), “difficult to be released”.

The values are drawn from US8969563B2, “Calcium salt of pyrroloquinoline quinone” (Mitsubishi Gas Chemical Company, Inc., priority 2010, dated 2015).
